Test results as given in PMC4416304, “Nickel quercetinase, a “promiscuous” metalloenzyme: metal incorporation and metal ligand substitution studies” (BMC Biochemistry, 2015).
Changes are numbered by the printed parent chain.

Tests used:
Assay in all cases: intrinsic protein fluorescence titration
Format in all cases: binding
[1] = target: T1, QueD (Ni-QueD; Streptomyces quercetinase) (Streptomyces sp. FLA, UniProt A2VA43)
T1 construct: C-terminal StrepII tag kept (pET23a-queD-Strep), E. coli BL21(DE3) pLysS grown with Ni2+; monocupin, native enzyme a dimer
T1 sequence (A2VA43 1-186): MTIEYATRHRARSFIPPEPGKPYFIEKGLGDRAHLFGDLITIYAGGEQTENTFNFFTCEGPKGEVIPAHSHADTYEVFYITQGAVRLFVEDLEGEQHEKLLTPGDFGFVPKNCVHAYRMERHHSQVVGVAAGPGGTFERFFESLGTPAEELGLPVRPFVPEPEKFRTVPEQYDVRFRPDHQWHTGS
From the text: intrinsic protein fluorescence titration on QueD (Ni-QueD; Streptomyces quercetinase) | The K D value of the complex of Ni-QueD with quercetin

[2] = target: T2, QueD (Ni-QueD; Streptomyces quercetinase) (Streptomyces sp. FLA, UniProt A2VA43, E76D)
T2 construct: C-terminal StrepII tag kept (pET23a-queD-Strep), E. coli BL21(DE3) pLysS grown with Ni2+; monocupin, native enzyme a dimer
T2 sequence (A2VA43 1-186 E76D): T1 sequence (A2VA43 1-186) with E76D
From the text: (§1) intrinsic protein fluorescence titration on QueD (Ni-QueD; Streptomyces quercetinase)

[3] = target: T3, QueD (Ni-QueD; Streptomyces quercetinase) (Streptomyces sp. FLA, UniProt A2VA43, H69A)
T3 construct: C-terminal StrepII tag kept (pET23a-queD-Strep), E. coli BL21(DE3) pLysS grown with Ni2+; monocupin, native enzyme a dimer
T3 sequence (A2VA43 1-186 H69A): T1 sequence (A2VA43 1-186) with H69A
From the text: as §1

[4] = target: T4, QueD (Ni-QueD; Streptomyces quercetinase) (Streptomyces sp. FLA, UniProt A2VA43, H71A)
T4 construct: C-terminal StrepII tag kept (pET23a-queD-Strep), E. coli BL21(DE3) pLysS grown with Ni2+; monocupin, native enzyme a dimer
T4 sequence (A2VA43 1-186 H71A): T1 sequence (A2VA43 1-186) with H71A
From the text: as §1

[5] = target: T5, QueD (Ni-QueD; Streptomyces quercetinase) (Streptomyces sp. FLA, UniProt A2VA43, H115A)
T5 construct: C-terminal StrepII tag kept (pET23a-queD-Strep), E. coli BL21(DE3) pLysS grown with Ni2+; monocupin, native enzyme a dimer
T5 sequence (A2VA43 1-186 H115A): T1 sequence (A2VA43 1-186) with H115A
From the text: as §1

[6] = target: T6, QueD (Ni-QueD; Streptomyces quercetinase) (Streptomyces sp. FLA, UniProt A2VA43, E76H)
T6 construct: C-terminal StrepII tag kept (pET23a-queD-Strep), E. coli BL21(DE3) pLysS grown with Ni2+; monocupin, native enzyme a dimer
T6 sequence (A2VA43 1-186 E76H): T1 sequence (A2VA43 1-186) with E76H
From the text: as §1

O=c1c(O)c(-c2ccc(O)c(O)c2)oc2cc(O)cc(O)c12 [quercetin]
Kd [1]: 10.1 ± 2.9 µM
Kd [2]: 4 µM
Kd [3]: 3.1 µM
Kd [4]: 10.4 µM
Kd [5]: 2.6 µM
Kd [6]: 1.3 µM
